Test results reported in patent US20020051978A1, “Methods and compositions for the identification, assessment, prevention and therapy of human cancers” (priority 2000, published 2002).
Several values for one entry are separate records, joined by “and”; a condition that tells them apart may be missing. Equal entries are not always repeated. Where two headings read alike, the source gives them in different places.

What was measured:
[1] = test system: 60 cancer cell lines (NCI 60 cancer cell line series); test: NCI-DTP in vitro cancer screen, sulforhodamine B (SRB) growth inhibition, 48 hour exposure; format: cell-based, human; set-up: key to sensitivity class Ovarian OVCAR-8 CL6005 / sensitivity class Ovarian SK-OV-3 CL6011 / sensitivity class Prostate DU-145 CL11003 / sensitivity class NSCLC NCI-H522 CL1003 / sensitivity class Ovarian IGROV1 CL6010 / sensitivity class Ovarian OVCAR-4 CL6002 / sensitivity class Prostate PC-3(I) CL11001 / sensitivity class Renal A498 CL9013 / sensitivity class Renal SN12C CL9008: sensitivity class: 1 = Low, 2 = Medium, 3 = High
In short: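 Sixty NCI-DTP cancer lines plated at line-specific densities, dosed on day 1 in duplicate with 5 concentrations at ten-fold intervals. After 48 h exposure, cell mass read by SRB staining; GI50 (50% growth inhibition) taken from dose-response curves and expressed as -log GI50.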

[2] = test system: 60 cancer cell lines (NCI 60 cancer cell line series); conditions: cited from earlier work

Structure (SMILES): CC[C@@]1(O)C(=O)OCc2c1cc1n(c2=O)Cc2cc3c(CN(C)C)c(O)ccc3nc2-1 [Topotecan]
- classification of cell line as Low(1), Medium(2) or High(3) sensitivity to compound ([1]; Breast HS-578T CL5006): 1
- classification of cell line as Low(1), Medium(2) or High(3) sensitivity to compound ([1]; Breast MDA-MB-231 CL5005): 1
- classification of cell line as Low(1), Medium(2) or High(3) sensitivity to compound ([1]; Breast MDA-MB-435 (CL5011)): 2
- classification of cell line as Low(1), Medium(2) or High(3) sensitivity to compound ([1]; Breast MDA-N CL5012): 2
- classification of cell line as Low(1), Medium(2) or High(3) sensitivity to compound ([1]; Breast T-47D (CL5014)): 3
- classification of cell line as Low(1), Medium(2) or High(3) sensitivity to compound ([1]; CNS SF-268 CL12014): 3
- classification of cell line as Low(1), Medium(2) or High(3) sensitivity to compound ([1]; CNS SF-539 CL12016): 3
- classification of cell line as Low(1), Medium(2) or High(3) sensitivity to compound ([1]; CNS SNB-19 (CL12002)): 2
- classification of cell line as Low(1), Medium(2) or High(3) sensitivity to compound ([1]; CNS SNB-75(I) CL12005): 2
- classification of cell line as Low(1), Medium(2) or High(3) sensitivity to compound ([1]; Colon COLO-250 CL4010): 1
- classification of cell line as Low(1), Medium(2) or High(3) sensitivity to compound ([1]; Colon HCT-15 CL4015): 1
- classification of cell line as Low(1), Medium(2) or High(3) sensitivity to compound ([1]; Colon HCT-116 (CL4003)): 2
- classification of cell line as Low(1), Medium(2) or High(3) sensitivity to compound ([1]; Colon HT29(I) CL4001): 2
- classification of cell line as Low(1), Medium(2) or High(3) sensitivity to compound ([1]; Colon SW-620 (CL4009)): 2
- classification of cell line as Low(1), Medium(2) or High(3) sensitivity to compound ([1]; Leukemia CCRF-CEM(I) (CL7003)): 3
- classification of cell line as Low(1), Medium(2) or High(3) sensitivity to compound ([1]; Leukemia K562(I) CL7005): 2
- classification of cell line as Low(1), Medium(2) or High(3) sensitivity to compound ([1]; Leukemia MOLT-4 (CL7006)): 3
- classification of cell line as Low(1), Medium(2) or High(3) sensitivity to compound ([1]; Leukemia RPMI-8226(I) (CL7010)): 2
- classification of cell line as Low(1), Medium(2) or High(3) sensitivity to compound ([1]; Melanoma LOX IMVI CL10001): 3
- classification of cell line as Low(1), Medium(2) or High(3) sensitivity to compound ([1]; Melanoma MALME-3M CL10002): 2
- classification of cell line as Low(1), Medium(2) or High(3) sensitivity to compound ([1]; Melanoma SK-MEL-2 (CL10005)): 1
- classification of cell line as Low(1), Medium(2) or High(3) sensitivity to compound ([1]; Melanoma SK-MEL-5 (CL10007)): 2
- classification of cell line as Low(1), Medium(2) or High(3) sensitivity to compound ([1]; Melanoma SK-MEL-28 (CL10008)): 1
- classification of cell line as Low(1), Medium(2) or High(3) sensitivity to compound ([1]; Melanoma UACC-257 (CL10021)): 2
- classification of cell line as Low(1), Medium(2) or High(3) sensitivity to compound ([1]; NSCLC A549/ATCC (CL1004)): 2
- classification of cell line as Low(1), Medium(2) or High(3) sensitivity to compound ([1]; NSCLC HOP-62 (CL1026)): 3
- classification of cell line as Low(1), Medium(2) or High(3) sensitivity to compound ([1]; NSCLC HOP-92 (CL1029)): 2
- classification of cell line as Low(1), Medium(2) or High(3) sensitivity to compound ([1]; NSCLC NCI-H226 CL1013): 2
- sensitivity class NSCLC NCI-H23(I) CL1001 ([1]; cell line NSCLC NCI-H23(I), CL1001): 2
- sensitivity class NSCLC NCI-H460 CL1021 ([1]; cell line NSCLC NCI-H460, CL1021): 3
- sensitivity class NSCLC NCI-H522 CL1003 ([1]; cell line NSCLC NCI-H522, CL1003): 2
- sensitivity class Ovarian OVCAR-4 CL6002 ([1]; cell line Ovarian OVCAR-4, CL6002): 1
- sensitivity class Ovarian OVCAR-5 CL6003 ([1]; cell line Ovarian OVCAR-5, CL6003): 2
- sensitivity class Ovarian OVCAR-8 CL6005 ([1]; cell line Ovarian OVCAR-8, CL6005): 2
- sensitivity class Ovarian SK-OV-3 CL6011 ([1]; cell line Ovarian SK-OV-3, CL6011): 2
- sensitivity class Prostate DU-145 CL11003 ([1]; cell line Prostate DU-145, CL11003): 3
- sensitivity class Prostate PC-3(I) CL11001 ([1]; cell line Prostate PC-3(I), CL11001): 2
- sensitivity class Renal 786-O CL9018 ([1]; cell line Renal 786-O, CL9018): 3
- sensitivity class Renal A498 CL9013 ([1]; cell line Renal A498, CL9013): 2
- sensitivity class Renal ACHN CL9023 ([1]; cell line Renal ACHN, CL9023): 3
- sensitivity class Renal CAKI-1 CL9015 ([1]; cell line Renal CAKI-1, CL9015): 3
- sensitivity class Renal RXF-393 CL9016 ([1]; cell line Renal RXF-393, CL9016): 2
- sensitivity class Renal TK10 CL9024 ([1]; cell line Renal TK10, CL9024): 1
- sensitivity class Renal UO-31 CL9004 ([1]; cell line Renal UO-31, CL9004): 2
- -Log (GI50) ([2]; Breast MCF7(I) (CL5001)): 8.0 and 7.8
- -Log (GI50) ([2]; Breast T-47D (CL5014)): 8.0 and 7.7
- -Log (GI50) ([2]; CNS SF-268 CL12014): 7.7
- -Log (GI50) ([2]; CNS SF-539 CL12016): 7.7 and 7.8
- -Log (GI50) ([2]; CNS SNB-19 (CL12002)): 7.5 and 7.6
- -Log (GI50) ([2]; CNS U251(I) CL12009): 7.5 and 7.8
- -Log (GI50) ([2]; Colon HCT-15 CL4015): 6.2 and 6.3
- -Log (GI50) ([2]; Colon KM12 (CL4017)): 6.5 and 6.4
- -Log (GI50) ([2]; Leukemia CCRF-CEM(I) (CL7003)): 7.9
- -Log (GI50) ([2]; Leukemia MOLT-4 (CL7006)): 7.9
- -Log (GI50) ([2]; Melanoma LOX IMVI CL10001): 7.7 and 7.8
- -Log (GI50) ([2]; Melanoma M14 (CL10014)): 7.5 and 7.8
- -Log (GI50) ([2]; Melanoma SK-MEL-2 (CL10005)): 5.7 and 6.0
- -Log (GI50) ([2]; Melanoma SK-MEL-5 (CL10007)): 7.2 and 7.5
- -Log (GI50) ([2]; Melanoma UACC-62 (CL10020)): 7.8 and 7.7
- -Log (GI50) ([2]; NCSLC NCI-H522 CL1003): 7.3 and 7.5
- -Log (GI50) ([2]; NSCLC A549/ATCC (CL1004)): 7.0 and 7.3
- -Log (GI50) ([2]; NSCLC HOP-62 (CL1026)): 7.9
- -Log (GI50) ([2]; NSCLC NCI-H23(I) CL1001): 7.4
- -Log (GI50) ([2]; NSCLC NCI-H460 CL1021): 7.7
- -Log (GI50) ([2]; Ovarian IGROV1 CL6010): 6.3 and 6.4
- -Log (GI50) ([2]; Ovarian SK-OV-3 CL6011): 7.1 and 7.2
- -Log (GI50) ([2]; Prostate DU-145 CL11003): 8.0 and 7.8
- -Log (GI50) ([2]; Renal A498 CL9013): 6.7 and 7.0
- -Log (GI50) ([2]; Renal ACHN CL9023): 7.7 and 7.8
- -Log (GI50) ([2]; Renal CAKI-1 CL9015): 7.9 and 7.8
- -Log (GI50) ([2]; Renal SN12C CL9008): 7.6 and 7.5
- -Log (GI50) ([2]; Renal TK10 CL9024): 5.1 and 5.3
- -Log (GI50) ([2]; Renal UO-31 CL9004): 7.0 and 7.2
